One assay has as its system IL-6. As to conditions: in vivo; cited from earlier work.
The test system of assay [1] is bacterial-induced inflammation and sepsis. To be noted: murine model; Lamotte et al. (2012); cited from earlier work.
The next assay concerns the target T1, Brd4 bromodomain 1 (Homo sapiens, UniProt O60885).
T1 construct: Illustrative results with the first bromodomain of Brd4; made in house; host or cells: E. coli BL21(DE3)
The assay can be described thus: TR-FRET inhibition of tetra-acetylated histone H4 binding to Brd4 bromodomain 1. As to conditions: tetra-acetylated histone H4 peptide and Brd4 bromodomain 1, 2 hours at room temperature. The procedure:
Proteins were cloned and overexpressed with a N-terminal 6×His tag, then purified by nickel affinity followed by size exclusion chromatography. Briefly, E. coli BL21(DE3) cells were transformed with a recombinant expression vector encoding N-terminally Nickel affinity tagged bromodomains from Brd2, Brd3, Brd4. Cell cultures were incubated at 37° C. with shaking to the appropriate density and induced overnight with IPTG. The supernatant of lysed cells was loaded onto Ni-IDA column for purification. Eluted protein was pooled, concentrated and further purified by size exclusion chromatography. Fractions representing monomeric protein are pooled, concentrated, aliquoted, and frozen at −80° C. for use in subsequent experiments.
Binding of tetra-acetylated histone H4 and BET bromodomains was confirmed by a Time Resolved Fluorescence Resonance Energy Transfer (TR-FRET) method. N-terminally His-tagged bromodomains (200 nM) and biotinylated tetra-acetylated histone H4 peptide (25-50 nM, Millipore) were incubated in the presence of Europium Cryptate-labeled streptavidin (Cisbio Cat. #610SAKLB) and XL665-labeled monoclonal anti-His antibody (Cisbio Cat. #61 HISXLB) in a white 96 well microtiter plate (Greiner). For inhibition assays, serially diluted test compound was added to these reactions in a 0.2% final concentration of DMSO. Final buffer concentrations were 30 mM HEPES pH 7.4, 30 mM NaCl, 0.3 mM CHAPS, 20 mM phosphate pH 7.0, 320 mM KF, 0.08% BSA). After 2 hours incubation at room temperature, the fluorescence by FRET was measured at 665 and 620 nm by a SynergyH4 plate reader (Biotek). The binding inhibitory activity was shown by a decrease in 665 nm fluorescence relative to 620 nm. IC50 values were determined from a dose response curve.

For another assay, the system named is c-myc. The assay can be described thus: Inhibition of c-myc expression (mRNA, real-time PCR) in MV4-11 cells. Format: cell-based. As to conditions: c-myc mRNA in human AML MV4-11 cells, 3 hours incubation. Set-up: key: Active: Compounds with an IC50 value less than 30 uM were deemed to be active. The procedure:
MV4-11 cells (2.5×10^4 cells) were plated in 96 well U-bottom plates with test compound or DMSO (0.1%), and incubated for 3 hours at 37° C. Cells were then harvested by centrifugation, lysed, and mRNA was isolated using the mRNA catcher plus kit (Invitrogen). Reverse transcription of the mRNA and duplex amplification of the c-myc and cyclophilin cDNAs was performed using the RNA Ultrasense kit (Invitrogen) and a ViiA7 real-time PCR machine (Applied Biosystems). IC50 values were determined from a dose response curve.
(In general: In qPCR the cycle at which signal appears reflects the starting amount.)

A further assay deals with Human AML MV-4-11 cells. The assay can be described thus: Inhibition of cell proliferation in human AML MV-4-11 cells. Format: cell-based. Also noted: key: Active: Compounds with an IC50 value less than 30 uM were deemed to be active. To be noted: 72 hours, CellTiter Aqueous One. The procedure: MV4-11 cells: 96-well plates were seeded with 5×10^4 cells per well of exponentially growing human AML MV-4-11 (CRL-9591) cells and immediately treated with two-fold dilutions of test compounds, ranging from 30 μM to 0.2 μM. Triplicate wells were used for each concentration, as well as a media only and three DMSO control wells. The cells and compounds were incubated at 37° C., 5% CO2 for 72 hours before adding 20 μL of the CellTiter Aqueous One Solution (Promega) to each well and incubating at 37° C., 5% CO2 for an additional 3-4 hours. The absorbance was taken at 490 nm in a spectrophotometer and the percentage of proliferation relative to DMSO-treated cells was calculated after correction from the blank well. IC50 were calculated using the GraphPad Prism software.

In assay [2] the test system is NUT (nuclear protein in testis) midline carcinoma (NMC). To be noted: murine xenograft models of NMC; Filippakopoulos et al. (2010); cited from earlier work.
Another assay has as its system multiple myeloma. To be noted: associated with cell cycle arrest and cellular senescence, Delmore et al. (2011); cited from earlier work.

Structures are written as SMILES.

Regarding `COc1cc2c(cc1-c1c(C)noc1C)ncc1[nH]c(=O)n([C@H](C)c3ccccn3)c12` [I-BET151], the IL-6 expression entry in the assay with IL-6 is reported as “decrease IL-6 expression”. Also, the “bacterial-induced inflammation and sepsis” value in assay [1] is “suppress bacterial-induced inflammation and sepsis”. For the compound `COc1cc(OC)c2c(=O)[nH]c(-c3cc(C)c(CNC(C)=O)c(C)c3)nc2c1` [Example 32, N-(4-(5,7-dimethoxy-4-oxo-3,4-dihydroquinazolin-2-yl)-2,6-dimethylbenzyl)acetamide], at Brd4 bromodomain 1, the “FRET activity (<50 uM)” value is listed as “Active”. Also, in the assay on c-myc, the “c-myc activity (<30 uM)” value is reported as “Inactive”. Further, the “cell proliferation activity (<30 uM)” value in the assay on Human AML MV-4-11 cells was “Inactive”. In the case of `COc1cc(OC)c2c(=O)[nH]c(-c3cc(C)c(OCCNC(C)C)c(C)c3)nc2c1` [Example 38, 2-(4-(2-(isopropylamino)ethoxy)-3,5-dimethylphenyl)-5,7-dimethoxyquinazolin-4(3H)-one], at Brd4 bromodomain 1, the “FRET activity (<50 uM)” value is listed as “Active”. In the assay on c-myc, the “c-myc activity (<30 uM)” value is listed as “Active”. Moreover, the “cell proliferation activity (<30 uM)” value in the assay on Human AML MV-4-11 cells is reported as “Active”. In the case of `COc1cc(OC)c2c(=O)[nH]c(-c3cc(C)c(OCCN(C)C(C)=O)c(C)c3)nc2c1` [Example 41, N-(2-(4-(5,7-dimethoxy-4-oxo-3,4-dihydroquinazolin-2-yl)-2,6-dimethylphenoxy)ethyl)-N-methylacetamide], the “FRET activity (<50 uM)” value on Brd4 bromodomain 1 is reported as “Active”.

Consider `Cc1cc(-c2nc3cccc(Cl)c3c(=O)[nH]2)cc(C)c1OCCO` [Example 27, 5-chloro-2-(4-(2-hydroxyethoxy)-3,5-dimethylphenyl)quinazolin-4(3H)-one], for which the “FRET activity (<50 uM)” value on Brd4 bromodomain 1 is recorded as “Inactive”. Same read-out and setting: in the case of `COc1cc(OC)c2c(=O)[nH]c(-c3ccc4cc(CCO)[nH]c4c3)nc2c1` [Example 52, 2-[2-(2-hydroxyethyl)-1H-indol-6-yl]-5,7-dimethoxy-3H-quinazolin-4-one] it was “Active”; in that of `COc1cc(OCCOCc2cccnc2)cc2nc(-c3cc(C)c(O)c(C)c3)[nH]c(=O)c12` [Example 6, 2-(4-hydroxy-3,5-dimethylphenyl)-5-methoxy-7-[2-(pyridin-3-ylmethoxy)ethoxy]-3H-quinazolin-4-one], “Active”. For `Cc1sc2c(c1C)C(c1ccc(Cl)cc1)=N[C@@H](CC(=O)OC(C)(C)C)c1nnc(C)n1-2` [JQ1], the antitumor activity result in assay [2] is “potent antitumor activity”. In addition, the antiproliferative effect entry in the assay on multiple myeloma was “potent antiproliferator”. Turning to `Cc1cc(C)c2c(=O)[nH]c(-c3cc(C)c(OCCO)c(C)c3)nc2n1` [Example 13, 2-(4-(2-hydroxyethoxy)-3,5-dimethylphenyl)-5,7-dimethylpyrido[2,3-d]pyrimidin-4(3H)-one], the “FRET activity (<50 uM)” value at Brd4 bromodomain 1 is “Active”. On to `COCCOc1cc(OC)c2c(=O)[nH]c(-c3cc(C)c(O)c(C)c3)nc2c1` [Example 4, 2-(4-hydroxy-3,5-dimethyl-phenyl)-5-methoxy-7-(2-methoxy-ethoxy)-3H-quinazolin-4-one], for which the “FRET activity (<50 uM)” value at Brd4 bromodomain 1 is on record as “Active”.

As for `COc1cc(OC)c2c(=O)[nH]c(-c3cc(C)c(OCC(O)CO)c(C)c3)nc2c1` (centres unmarked) [Example 16, 2-[4-(2,3-Dihydroxy-propoxy)-3,5-dimethyl-phenyl]-5,7-dimethoxy-3H-quinazolin-4-one], at Brd4 bromodomain 1, the “FRET activity (<50 uM)” value is “Active”. On the same count and under the same terms, next, `Cc1cc(-c2nc3ccc(CNS(C)(=O)=O)cc3c(=O)[nH]2)cc(C)c1O` [Example 11, N-((2-(4-hydroxy-3,5-dimethylphenyl)-4-oxo-3,4-dihydroquinazolin-6-yl)methyl)methanesulfonamide]: “Active”; `COc1cc(OCCOCc2ccccc2)cc2nc(-c3ccc4oc(CO)cc4c3)[nH]c(=O)c12` [Example 21, 7-(2-benzyloxy-ethoxy)-2-(2-hydroxymethyl-benzofuran-5-yl)-5-methoxy-3H-quinazolin-4-one]: “Inactive”. Same read-out and setting: next, `CNC(=O)COc1c(C)cc(-c2nc3cc(OC)cc(OC)c3c(=O)[nH]2)cc1C` [Example 22, 2-[4-(5,7-dimethoxy-4-oxo-3,4-dihydro-quinazolin-2-yl)-2,6-dimethyl-phenoxy]-N-methyl-acetamide]: “Active”; `COc1cc(OCCN)cc2nc(-c3cc(C)c(O)c(C)c3)[nH]c(=O)c12` [Example 3, 7-(2-amino-ethoxy)-2-(4-hydroxy-3,5-dimethyl-phenyl)-5-methoxy-3H-quinazolin-4-one]: “Active”. Regarding `CCNC(=O)C[C@@H]1N=C(c2ccc(Cl)cc2)c2cc(OC)ccc2-n2c(C)nnc21` [I-BET], in the assay on IL-6, the IL-6 expression entry was “decrease IL-6 expression”. Consider `COc1cc(OC)c2c(=O)[nH]c(-c3cc(C)c(OCCNS(=O)(=O)N(C)C)c(C)c3)nc2c1` [Example 44, N-(2-(4-(5,7-dimethoxy-4-oxo-3,4-dihydroquinazolin-2-yl)-2,6-dimethylphenoxy)ethyl)dimethylamino-N-sulfonamide], for which the “FRET activity (<50 uM)” value at Brd4 bromodomain 1 was “Active”.

Consider `COc1cc(OC)c2c(=O)[nH]c(-c3cc(C)c(OCC(=O)NCc4ccccc4)c(C)c3)nc2c1` [Example 24, N-benzyl-2-[4-(5,7-dimethoxy-4-oxo-3,4-dihydroquinazolin-2-yl)-2,6-dimethylphenoxy]acetamide], for which the “FRET activity (<50 uM)” value on Brd4 bromodomain 1 was “Active”. On the same count and under the same terms, next, `COc1cc(OC)c2c(=O)[nH]c(-c3cc(C)c(OCCNCC(F)(F)F)c(C)c3)nc2c1` [Example 34, 2-{3,5-dimethyl-4-[2-(2,2,2-trifluoro-ethylamino)-ethoxy]-phenyl}-5,7-dimethoxy-3H-quinazolin-4-one]: “Inactive”. `COc1cc(OC)c2c(=O)[nH]c(-c3ccc4oc(CO)cc4c3)nc2c1` [Example 19, 2-(2-hydroxymethyl-benzofuran-5-yl)-5,7-dimethoxy-3H-quinazolin-4-one]: at Brd4 bromodomain 1, the “FRET activity (<50 uM)” value is listed as “Inactive”.
